Measurements taken from a melting point compilation (Tetko et al.; mined from patent text by program, amines drawn as free bases though some values may be those of a salt).

melting point [°C] | SMILES
270 to 272 | Cc1ccc(C(=O)Nc2cccc(C(F)(F)F)c2)cc1-c1ccc2cnncc2c1
212 to 215 | O=C(Nc1ccc(C(=O)N2Cc3ccccc3Cc3ccccc32)cc1)c1ccc(Cl)cc1Cl
135 to 137 | C[C@@H]1CN(c2ncc(Cl)cc2Cl)CCN1c1nc2c(Br)cc(C(F)(F)F)cc2[nH]1
163 to 166 | O=C(Nc1cccc(Cc2nnn[nH]2)c1)C(F)(F)C(F)(F)C(F)(F)C(F)(F)C(F)(F)C(F)(F)C(F)(F)F
174 | NC(=O)CC12CC3CC(CC(C3)C1)C2
260 | Cc1nnc(N2C(=O)C(O)=C(C(=O)c3ccc(C(C)C)cc3)C2c2ccc(OC(F)(F)F)cc2)s1 (stereo unspecified)
124 to 131 | CCC(=O)C1=C(O)CC(c2cccc(O)c2)CC1=O (stereo unspecified)
182 to 184 | O=C(Nc1cc2ncc(CN3CCCC3)cc2cc1N1CCCC1)c1ccc(-c2ccc(F)cc2)cc1
152 | CNc1cc(SCC(C)O)c(N)cc1[N+](=O)[O-] (stereo unspecified)
93 to 95 | CC(C)(C(=O)O)c1ccc(C(=O)CCCN2CCC(OC(c3ccccc3)c3ccccc3)CC2)cc1
185 | C=CCS(=O)(=O)c1cccnc1S(=O)(=O)NC(=O)Nc1nc(OC)cc(OC)n1
290 to 292 | Cn1cc(-c2nnn[nH]2)c(=O)c2ccc(F)cc21
97 to 98 | Cc1c(C(=O)c2cccc(C(F)(F)F)c2)oc2c(Br)cccc12
123 to 125 | CC1(C)OC(=O)Nc2cc(-c3cccc(Cl)c3)sc21
203 | NS(=O)(=O)c1ccc(-c2cccc(-c3nc(-c4ccc(Cl)c(Cl)c4)cc(C(F)(F)F)n3)c2)s1
63.8 | O=C(Cl)N1CCC(N2CCCCC2)CC1
90 to 94 | COc1cccc(-c2noc(-c3ccccn3)n2)c1
232 to 234 | Cc1oc2c(C)c(C)c(NC(=O)c3ccc(F)cc3)c(C)c2c1-c1ccc(F)cc1
207 to 208 | C#Cc1cc(F)c(-n2c(=O)c(C)c(C(F)(F)F)n(C)c2=O)cc1NS(C)(=O)=O
121 to 124 | Nc1ncnc2c1ncn2[C@@H]1C=C[C@H](CO)C1
200 to 203 | CCc1cc(C(=O)c2ccccc2Cl)c(-n2c(CNC(=O)c3cc4ccccc4n3CC(=O)O)nnc2C(F)(F)F)s1
203 to 205 | Cc1ccc(C2c3c(C)c(N4CCN(c5ccc([N+](=O)[O-])cc5)CC4)c(C)c(C)c3OC2(C)C)cc1 (stereo unspecified)
92 to 93 | CC1(C=O)CC1(c1cccc(F)c1)c1cccc(F)c1 (stereo unspecified)

melting point [°C] | SMILES
182 to 183 | S=C1Nc2ccccc2Cc2nccn21
102 to 103 | CCCCCN1CCN(c2nc(C)c(C(=O)NCc3cccnc3)s2)C1=O
158 to 162 | COc1cc2c(cc1CCCCO)oc1cc(-c3ccccc3Cl)c3c(c12)C(=O)NC3=O
96 to 97 | COc1ccc2c(c1)CNCCO2
> 300 | COc1cc2nc(-c3cc(C)c(OCCO)c(C)c3)[nH]c(=O)c2cc1OC
188 to 192 | CCN1C(=O)C(C)(C)C(=O)N(C)c2cc(CN(CCn3cc(C)c4occc4c3=O)Cc3ncccc3N)ccc21
134 to 135 | CC(=O)CC(=O)c1cc(Cl)c(Cl)cc1O
109 to 111 | O=C(O)Cc1ccc2ccn(Cc3ccccc3)c2c1
127 to 129 | CCC(C)(O)c1cc(NC(=O)N2CCN(c3cc(OC)cc(OC)c3)CC2)c(OC)nc1C (stereo unspecified)
160 to 162 | COc1cc(OS(=O)(=O)c2ccc(N3CCN(C)C3=O)cc2)cc(OC)c1OC
265 to 266 | Cn1cc(C2=C(c3c4n(c5ccccc35)CC3CN(C(=O)OC(C)(C)C)CC3C4)C(=O)OC2=O)c2ccccc21 (stereo unspecified)
225 to 226 | CC1(C)CCc2c(N3CCSCC3)nc3sc4c(NCc5ccccn5)ncnc4c3c2C1
188 | CC#CCOc1ccc(S(=O)C(C(=O)NO)C2CCCCC2)cc1 (stereo unspecified)
> 300 | Cn1c(CCCO)nc2cccnc21
143 | CCCC(CCC)N1CCc2c(C(=O)O)cc(F)cc2C1=O
161 | Clc1ccc(C=CC=Cc2ccccc2)cc1
129 to 132 | CC(C)(C)OC(=O)N[C@@H](Cc1ccccn1)C(=O)NCC(=O)c1ccc(-c2ccccc2)cc1
133 to 134 | CC(=O)NC12CCC(CC1)C2(C)C
56 | O=Cc1ccc2cccnc2c1
107 to 109 | COC(=O)CCCc1cc2nc(Cl)ccc2n1S(=O)(=O)c1c(F)cccc1F
147 to 148 | COc1ccc2c(N=O)c(O)ccc2c1
184 | Cc1nc2scc(C)n2c(=O)c1CCN1CCC(=C(c2ccc(F)cc2)c2ccc(F)cc2)CC1
104 to 105 | C#CCn1c(C(F)(F)F)nc2cc(F)c(-n3c(=O)cc(C(F)(F)F)n(C)c3=O)cc21

melting point [°C] | SMILES
165 to 167 | O=C(O)Cc1ccc(-n2cc(F)cn2)cc1
229 to 231 | O=C(O)Cc1nn(-c2ccccn2)c2[nH]c3ccccc3c(=O)c12
193 to 194 | COc1ccc(CC(C)=NO)cc1S(N)(=O)=O
92 to 94 | Cc1cc(Oc2c(Cl)cc(C(F)(F)F)cc2Cl)nn1C(=S)NC(C)C
225 to 227 | C#Cc1cccc(Nc2ncnc3[nH]cc(-c4ccc(Cl)cc4)c23)c1
267 to 269 | CC(=O)c1c(-c2ccc(Cl)cc2)c(-c2ccc(Cl)cc2)n[nH]c1=O
139 to 140 | CC(C)Nc1cccnc1N1CCN(C(=O)c2ccc(C(=O)N[C@H](CO)CC3CCCCC3)cc2)CC1
120 | COc1cc2c(cc1OC)CN(CCCc1ccc(NC(=O)c3cccc4c(=O)c5cccc(C)c5[nH]c34)cc1)CC2
175 to 177 | Cn1c(COc2ccc(CC3SC(=O)NC3=O)cc2)nc2ccc(Oc3ccc(NC(=S)NCc4ccccc4)cc3)cc21 (stereo unspecified)
87 to 89 | COc1ccc(-c2cccc(COCCc3cccc(NC(N)=O)c3)c2)cc1
125 to 126 | CCNC(=O)N1CC(Oc2cccc(C(F)(F)F)c2)C1
135 to 136 | N#CCN1CCC(N2CCN(CCCN3CCCCC3)C2=C(C#N)C#N)CC1
196 to 198 | CSc1nc(O)c(C#N)n1C(C)C
255 to 258 | COc1cccc2c3c([nH]c12)CCNC3=O
124 to 126 | CCN(C(=O)OC(C)(C)C)C1CC=C(c2c[nH]c3ccc(NC(=N)c4cccs4)cc23)CC1 (stereo unspecified)
196 to 197 | O=C(Nc1ccc(Oc2ccnc(N3CCC3)n2)c2ccccc12)c1cc(F)cc(N2CCOCC2)c1
81 to 83 | CCOC(=O)C1Oc2cc(C=O)c(Cl)c(Cl)c2O1 (stereo unspecified)
136 to 138 | Clc1nc(-c2ccccc2)nc(-c2ccccc2)n1
135 to 137 | C#CCCCCOc1cc(/C=C/C(=O)Nc2ccccc2C(=O)O)ccc1OC
115 to 116 | CSc1c[nH]c2ncccc12
126 | COc1ccc2ccc(O)c(C=O)c2c1
242 to 245 | Cc1cc(-c2nc3cc4c(cc3[nH]2)C(C)(C)CC(=O)N4)[nH]n1
180 to 181 | COc1cc(-c2nc(C)c(C(=O)NN)s2)cc(OC)c1OC

melting point [°C] | SMILES
191 to 194 | CCCCN(CCCC)c1ccc(C=CC2=C(C#N)C(=C(C#N)C#N)OC2(c2ccccc2)C(F)(F)F)c(OC)c1 (stereo unspecified)
149 to 154 | COc1cc2c(c3c1OC(C)(C)C3)C(c1cccc(-c3ccc(NC(=O)C(F)(F)F)cc3)c1)=NC(C)(C)C2
165 to 167 | CC(=O)N(C)c1nc(-c2ccccc2)c(-c2ccc(=O)n(C(C)C)n2)s1
138 to 143 | Cc1cc2c(=O)n(CCN(Cc3ccc4c(c3)NC(=O)C(C)(C)C(=O)N4CC3CC3)Cc3cccnc3C)ccc2o1
220 to 222 | CN(Cc1cc(C(F)(F)F)cc(C(F)(F)F)c1)C(=O)c1c(-c2ccc(F)cc2)c2nccnc2c(=O)n1C
234 to 236 | COc1ccc(S(=O)(=O)N(Cc2cccnc2)c2c(C(=O)O)cnc3snc(C)c23)cc1
235 | O=C(O)CSc1c(-c2cc(Cl)ccc2O)c2cc(C(F)(F)F)ccc2[nH]c1=O
283 to 284 | CC1(C)Oc2ccc(S(=O)(=O)C(F)(F)F)cc2C(N2Cc3cccc([N+](=O)[O-])c3C2=O)C1O (stereo unspecified)
159 to 160 | Cn1nc(C#N)c(Nc2ccc(F)cc2[N+](=O)[O-])n1
222 to 224 | Cc1nc(NCCSCc2nc[nH]c2C)[nH]c(=O)c1CCc1ccccc1
137 to 139 | Cc1nc(OC(C)C(=O)NC(C)(C#N)C(C)(C)C)c(Cl)c(C(F)(F)F)n1 (stereo unspecified)
221 to 223 | Nc1ccc2[nH]nc(Nc3nc(-c4ccccc4C(F)(F)F)nc4ccccc34)c2c1
140 to 144 | COc1ccc(C(C)N(C)CCCOc2ccc(S(=O)(=O)c3c(C(C)C)cn4ccccc34)cc2)cc1 (stereo unspecified)
177 to 179 | CC12CCC3c4ccc(C(=O)O)cc4CCC3C1CCC2C(=O)c1cccs1 (stereo unspecified)
184 to 185 | COc1cc(OC)c2c(=O)cc(S)oc2c1C1CCN(C)CC1O (stereo unspecified)
288 to 290 | CCOC(=O)c1cc2n(C)c3ccc(F)cc3c(=O)n2n1
106 to 108 | BrCCc1cc(Br)c(CCBr)cc1Br
91 to 93 | CCCCCCNC(=O)OC1CCN(C(=O)Oc2ccc(Oc3ccc(OC)cc3)cc2)CC1
64 to 67 | CCOc1nc(O)nn1CC
177 to 178 | Cn1c(C(F)(F)F)cc(=O)n(-c2ccc(Cl)c3c2OC(C)(C)C3=O)c1=O

SMILES | melting point [°C]
CC(C)CCN1C(=O)C(NC(=O)Oc2ccccc2)C(=O)N(c2ccccc2)c2ccc(F)cc21 (stereo unspecified) | 160 to 165
Cc1nc(C=Cc2nc3ccccc3c(=O)n2-c2ccccc2Cl)cs1 | 219 to 221
Cc1cc(Oc2ccc(NC(=O)Nc3ccc(N(CCCl)CCCl)cc3)cc2)c2cc3c(cc2n1)OCO3 | 217 to 218
O=C(Cc1ccc(Cl)c(Cl)c1)N(O)[C@H](CN1CCCC1)c1ccccc1 | 118 to 120
CN1C(=O)C(N)N=C(c2ccccc2)c2ccncc21 (stereo unspecified) | 94 to 118
O=C1CCN(C(=O)c2cccs2)CC1 | 81 to 83
COC(=O)c1ccc(CC(C)NCC(O)c2ccc(O)c(C)c2)cc1 (stereo unspecified) | 103 to 107
